Test results from patent US11464751B2, “Use of fluoroethylnormemantine for the prevention and treatment of anxiety” (REST THERAPEUTICS, priority 2017, dated 2022).

Experiments:
naive rats (Wistar) [1] = assay: Light-dark box test; assay type: in vivo, rat
Procedure: (§1) In the following examples, the effects of memantine, propranolol and fluoroethylnormemantine (FENM, the subject of the present invention) are studied in naive rats (Wistar) subjected to various tests related to depression or anxiety and then compared.
(§2) The test substances are administered to rats intraperitoneally in a volume of 5 ml/kg, 30 minutes before the behavioral tests are performed.
(§3) The injected solutions contain either of the molecules in the form of one of their salts, a hydrochloride (memantine·HCl and FENM·HCl) for the nitrogen derivatives and as such for propranolol, at the concentrations indicated below in a mixture of 95% (NaCl 0.9% ww in water)/5% ethanol. In each experiment, the dose per kilogram is referenced.
(§4) For each paradigm, and each solution tested, 12 rats are subjected to injection and behavioral testing. The control solution is a saline solution.
In this example the light-dark box test was used. As it is based on rodents' innate aversion to light, the increase in time spent in the lighted compartment is therefore considered to reflect a lower level of anxiety.
The box used for this test is divided into a white behavior with high-power illumination (600 lux) and a black behavior with a lid (about 5 lux). The number of entries and the time spent in the illuminated compartment (anxiety zone) are recorded for 10 minutes by a video monitoring system. In addition, the system makes it possible to differentiate the periods between 0 and 5 minutes and between 5 and 10 minutes.

naive rats (Wistar) [2] = assay: Open-field test (locomotor activity and anxiety); assay type: in vivo, rat; conditions: for drowsiness effect / overall activity level of the animals: open field over 2 hours, FENM even at high doses, memantine 10 mg/kg
Procedure: Thus, to test state anxiety, several animal models are commonly used and have been validated by numerous studies: • open field test: This consists of forcibly exposing the animal (rat or mouse) to a new environment and observing its behavior. […] Locomotor activity and behavior are then assessed by recording the number of crossings of the grid lines, the frequency of retreats, the number of entries and the time spent in the central squares. This animal model is considered a good model of “normal” anxiety when adapting to a new environment. It has good predictability of human response to treatment (L. Prut, European Journal of Pharmacology 463 (2003) 3-33). The open-field test is also useful, when it is prolonged (behavioral recording time over 2 hours), as it allows monitoring the motor activity of the animals and thus their state of wakefulness, whereas measurements at short times give information on anxiety. • the light-dark box test: another animal model of anxiety is based on the aversive properties of an open-field space and on the comparison of exploratory activities in a lit compartment and in a dark compartment under the influence of anxiolytic substances (M Bourin, European Journal of Pharmacology 463 (2003) 55-65). This paradigm is based on rodents' innate aversion to bright places and on rodents' spontaneous exploratory behavior in response to stressful environments (new environment or light). The test device is divided into two compartments, one is small, dark and safe, the second is large, bright and stressful. This paradigm allows the prediction of anxiolytic or anxiogenic drug-like activities in mice. Passages between each compartment are a cue of exploration activity, while the time spent in each compartment reflects aversion. Anxiolytics, effective in humans, classic (benzodiazepines) as well as more recent anxiolytic compounds (serotonergic drugs or drugs acting on neuropeptide receptors) can be detected by this animal model which has the advantage of being simple and quick to use. • The open-field test with light gradient: the two models described above can be judiciously coupled in order to check the anxiolytic potential of a molecule, by eliminating the “burrow” effect induced by the presence of the dark compartment.
as §1, §2, §3
In this way, the animals are given a constant volume of solution (to the nearest difference in weight) equal to 5 ml/kg, or 1.5 ml for a 300 g rat.
as §4
• Open-field test: The locomotor activity of the animals and the “normal” anxiety associated with the discovery of an unknown environment are measured in an open field using a video monitoring system for 2 hours, 30 minutes after the injection of the solutions to be tested. The recorded data include, with a reading every 5 minutes, the time spent in the central squares, vertical activity, and the number of displacements.

[3] = 10 mg/kg i.p., 30 min before test, 0-5 min

SMILES | Time spent in the lighted compartment (naive rats (Wistar) [1]; 1 mg/kg i.p., 0-5 min) [s] | Time spent in the lighted compartment (naive rats (Wistar) [1]; 1 mg/kg i.p., 0-10 min) [s] | Time spent in the lighted compartment (naive rats (Wistar) [1]; 1 mg/kg i.p., 5-10 min) [s] | Time spent in the lighted compartment (naive rats (Wistar) [1]; 3 mg/kg i.p., 0-5 min) [s] | Time spent in the lighted compartment (naive rats (Wistar) [1]; 3 mg/kg i.p., 0-10 min) [s] | Time spent in the lighted compartment (naive rats (Wistar) [1]; 3 mg/kg i.p., 5-10 min) [s] | Time spent in the lighted compartment (naive rats (Wistar) [1]; 10 mg/kg i.p., 0-5 min) [s] | Time spent in the lighted compartment (naive rats (Wistar) [1]; 10 mg/kg i.p., 0-10 min) [s] | Time spent in the lighted compartment (naive rats (Wistar) [1]; 10 mg/kg i.p., 5-10 min) [s] | Mean time spent in the central squares per time interval (naive rats (Wistar) [2]; [3]) [s] | Vertical activity (naive rats (Wistar) [2]; 10 mg/kg i.p., 0-5 min) | Mean time spent in the central squares per time interval (naive rats (Wistar) [2]; 10 mg/kg i.p., 0-10 min) [s] | Vertical activity (naive rats (Wistar) [2]; 10 mg/kg i.p., 0-10 min) | Mean time spent in the central squares per time interval (naive rats (Wistar) [2]; 10 mg/kg i.p., 0-120 min) [s] | Number of displacements (naive rats (Wistar) [2]; 10 mg/kg i.p., 0-120 min) | Vertical activity (naive rats (Wistar) [2]; 10 mg/kg i.p., 0-120 min) | Mean time spent in the central squares per time interval (naive rats (Wistar) [2]; 10 mg/kg i.p., 5-10 min) [s] | Vertical activity (naive rats (Wistar) [2]; 10 mg/kg i.p., 5-10 min) | drowsiness effect / overall activity level of the animals (naive rats (Wistar) [2]) | further results
CC12CC3CC(C)(C1)CC(N)(C3)C2 [Memantine, memantine] | 34.2 | 59.9 | 25.7 | 26.2 | 34.3 | 8.1 | 31.0 | 32.0 | 0.9 | 90.4 | 11.33 | 136.8 | 16.00 | 1874.8 | 750 | 60.08 | 46.3 | 4.67 | decreases the overall activity level | time spent in the lighted compartment compared with the control (naive rats (Wistar) [1]; memantine 1, 3, 10 mg/kg): no effect was observed
NC12CC3CC(C1)CC(CCF)(C3)C2 | 42.4 | 71.0 | 28.6 | 34.4 | 67.5 | 33.2 | 96.8 | 171.9 | 75.0 | 116.8 | 52.33 | 226.7 | 86.42 | 1803.8 | 1800 | 173.75 | 109.9 | 34.08 | does not generate the drowsiness effect | time spent in the lighted compartment compared with the control (naive rats (Wistar) [1]; 10 mg/kg, Student's t-test p<0.01): large and significant increase; Mean time spent in the central squares per time interval (naive rats (Wistar) [2]; 5 mg/kg i.p., 30 min before test, 0-5 min): 128.8 s; Vertical activity (naive rats (Wistar) [2]; 5 mg/kg i.p., 0-5 min): 40.67; Mean time spent in the central squares per time interval (naive rats (Wistar) [2]; 5 mg/kg i.p., 0-10 min): 216.8 s; Vertical activity (naive rats (Wistar) [2]; 5 mg/kg i.p., 0-10 min): 71.17; Mean time spent in the central squares per time interval (naive rats (Wistar) [2]; 5 mg/kg i.p., 0-120 min): 1563.6 s; Number of displacements (naive rats (Wistar) [2]; 5 mg/kg i.p., 0-120 min): 1600; Vertical activity (naive rats (Wistar) [2]; 5 mg/kg i.p., 0-120 min): 136.00; Mean time spent in the central squares per time interval (naive rats (Wistar) [2]; 5 mg/kg i.p., 5-10 min): 88.0 s; Vertical activity (naive rats (Wistar) [2]; 5 mg/kg i.p., 5-10 min): 30.50; Mean time spent in the central squares per time interval (naive rats (Wistar) [2]; 20 mg/kg i.p., 30 min before test, 0-5 min): 129.8 s; Vertical activity (naive rats (Wistar) [2]; 20 mg/kg i.p., 0-5 min): 47.33; Mean time spent in the central squares per time interval (naive rats (Wistar) [2]; 20 mg/kg i.p., 0-10 min): 235.7 s; Vertical activity (naive rats (Wistar) [2]; 20 mg/kg i.p., 0-10 min): 66.58; Mean time spent in the central squares per time interval (naive rats (Wistar) [2]; 20 mg/kg i.p., 0-120 min): 1692.8 s; Number of displacements (naive rats (Wistar) [2]; 20 mg/kg i.p., 0-120 min): 2100; Vertical activity (naive rats (Wistar) [2]; 20 mg/kg i.p., 0-120 min): 208.92; Mean time spent in the central squares per time interval (naive rats (Wistar) [2]; 20 mg/kg i.p., 5-10 min): 105.9 s; Vertical activity (naive rats (Wistar) [2]; 20 mg/kg i.p., 5-10 min): 19.25
